Reference: PubChem BioAssay AID294 (DTP/NCI, 2004)
Values joined by “and” are separate entries in the source; they are usually repeats but may differ in a detail not shown here. Equal values may be shown once.

Test system: MX-1 breast xenograft, nude mice, tumor weight change
Experiment: NCI In Vivo Anticancer Drug Screen. Data for tumor model Human Mammary Carcinoma MX-1 Xenograft (subcutaneous) in NU/NU Swiss (nude) mice
Conditions: endpoint: optimum tumor weight change, higher = larger tumour
Protocol: The antitumor activity of compounds was measured in mice bearing transplantable tumors. Survival or tumor size were measured and the results are expressed as the measurement made in the treated group (T) divided by the measurement made in the vehicle treated control group (C). The tumor model used in this assay is Human Mammary Carcinoma MX-1 Xenograft (subcutaneous) in NU/NU Swiss (nude) mice

[1] = dose: 25.0 mg/kg/injection, schedule: Q04DX003 (ip), vehicle: Klucel (hydroxypropylcellulose) (HPC)
[2] = dose: 50.0 mg/kg/injection, schedule: Q04DX003 (ip), vehicle: Klucel (hydroxypropylcellulose) (HPC)
[3] = dose: 100.0 mg/kg/injection, schedule: Q04DX003 (ip), vehicle: Klucel (hydroxypropylcellulose) (HPC)
[4] = dose: 100.0 mg/kg/injection, schedule: Q04DX003 (ip), vehicle: saline
[5] = dose: 200.0 mg/kg/injection, schedule: Q04DX003 (ip), vehicle: saline
[6] = dose: 400.0 mg/kg/injection, schedule: Q04DX003 (ip), vehicle: saline
[7] = dose: 800.0 mg/kg/injection, schedule: Q04DX003 (ip), vehicle: saline
[8] = dose: 50.0 mg/kg/injection, schedule: Q04DX003 (ip), vehicle: saline with Tween-80
[9] = dose: 100.0 mg/kg/injection, schedule: Q04DX003 (ip), vehicle: saline with Tween-80
[10] = dose: 25.0 mg/kg/injection, schedule: Q04DX003 (ip), vehicle: saline
[11] = dose: 0.25 mg/kg/injection, schedule: Q04DX003 (ip), vehicle: water
[12] = dose: 0.5 mg/kg/injection, schedule: Q04DX003 (ip), vehicle: water

In the case of `COC(OC(CO)C(O)S(=O)(=O)O)C(O)S(=O)(=O)O` (configuration not stated), the T/C [1] is reported as 83 % of control, the T/C [2] is reported as 80 % of control and the T/C [3] is reported as 62 % of control. For the same compound, the T/C [4] was 63 % of control, the T/C [5] was 74 % of control and the T/C [6] was 68 % of control. For the same compound, the T/C [7] was 47 % of control.
`CSc1cc(=O)n2c3ccccc3c3ccnc1c32` was tested, and the T/C (dose: 10.0 mg/kg/injection, schedule: Q04DX003 (ip), vehicle: saline with Tween-80) was 61 % of control, the T/C (dose: 20.0 mg/kg/injection, schedule: Q04DX003 (ip), vehicle: saline with Tween-80) was 50 % of control and 67 % of control and the T/C (dose: 80.0 mg/kg/injection, schedule: Q04DX003 (ip), vehicle: saline with Tween-80) was 27 % of control.
For `CO[C@H]1C[C@](C)(O)Cc2cc3c(c(O)c21)C(=O)c1c(O)cc2c(c1C3=O)O[C@@H]1O[C@@]2(C)[C@H](O)[C@@H](N(C)C)[C@@H]1O`, the T/C (dose: 6.25 mg/kg/injection, schedule: Q04DX003 (ip), vehicle: other) was 169 % of control and the T/C (dose: 12.5 mg/kg/injection, schedule: Q04DX003 (ip), vehicle: other) was 165 % of control.
With `CC(C)CCCCCCCCCCCCC(=O)NCC(=O)NC1C(C)OC(Nc2ncnc3nc[nH]c23)C(O)C1O` (configuration not stated) the T/C (dose: 3.13 mg/kg/injection, schedule: Q04DX003 (ip), vehicle: distilled water + Tween-80) was 102 % of control.
`CC(=O)OCC(=O)[C@@]12OC(C)(C)O[C@@H]1C[C@H]1[C@@H]3CC(C=O)=C4C=C(OCCCl)CC[C@]4(C)[C@@]3(F)[C@@H](O)C[C@@]12C` was tested, and the T/C [2] was 54 % of control.
For `COc1cc(NS(C)(=O)=O)ccc1Nc1c2ccccc2nc2ccccc12`, the T/C (dose: 8.0 mg/kg/injection, schedule: Q04DX003 (ip), vehicle: saline + alcohol) was 74 % of control.
For `CCN(CC)CCCC(C)Nc1c2ccc(Cl)cc2nc2ccc(OC)cc12` (configuration not stated), the T/C [8] was 95 % of control and the T/C [9] was 88 % of control.
`NC(Cc1ccc(N(CCCl)CCCl)cc1)C(=O)O` (configuration not stated) was tested, and the T/C (dose: 2.5 mg/kg/injection, schedule: Q04DX003 (ip), vehicle: Klucel (hydroxypropylcellulose) (HPC)) was 49 % of control, the T/C (dose: 5.0 mg/kg/injection, schedule: Q04DX003 (ip), vehicle: Klucel (hydroxypropylcellulose) (HPC)) was 15 % of control and the T/C (dose: 10.0 mg/kg/injection, schedule: Q04DX003 (ip), vehicle: Klucel (hydroxypropylcellulose) (HPC)) was -69 % of control and -81 % of control.
For `COc1cc([C@@H]2c3cc4c(c(O)c3C[C@H]3COC(=O)[C@@H]32)OCO4)cc(OC)c1OC`, the T/C (dose: 2.5 mg/kg/injection, schedule: Q04DX003 (ip), vehicle: saline) was 113 % of control, the T/C (dose: 5.0 mg/kg/injection, schedule: Q04DX003 (ip), vehicle: saline) was 64 % of control and the T/C (dose: 10.0 mg/kg/injection, schedule: Q04DX003 (ip), vehicle: saline) was 112 % of control.
`C1OC1CN1CCN(CC2CO2)CC1` (configuration not stated) was tested, and the T/C (dose: 12.5 mg/kg/injection, schedule: Q04DX003 (ip), vehicle: saline) was 91 % of control and the T/C [10] was 79 % of control.
`NC(=S)N/N=C/c1ccc(O)cn1` was tested, and the T/C [9] was 81 % of control, the T/C (dose: 200.0 mg/kg/injection, schedule: Q04DX003 (ip), vehicle: saline with Tween-80) was 46 % of control and the T/C (dose: 400.0 mg/kg/injection, schedule: Q04DX003 (ip), vehicle: saline with Tween-80) was 39 % of control. The T/C (dose: 800.0 mg/kg/injection, schedule: Q04DX003 (ip), vehicle: saline with Tween-80) was 73 % of control.
`CC(=O)OCC1OC(n2cc(CBr)nn2)C(OC(C)=O)C(OC(C)=O)C1OC(C)=O` (configuration not stated) was tested, and the T/C (dose: 25.0 mg/kg/injection, schedule: Q04DX003 (ip), vehicle: saline with Tween-80) was 119 % of control, the T/C [8] was 150 % of control and the T/C [9] was 57 % of control.
In the case of `CN(C)C=O`, the T/C (dose: 400.0 mg/kg/injection, schedule: Q04DX003 (ip), vehicle: suspension in saline) is reported as 44 % of control, the T/C (dose: 800.0 mg/kg/injection, schedule: Q04DX003 (ip), vehicle: suspension in saline) is reported as 53 % of control and the T/C (dose: 1600.0 mg/kg/injection, schedule: Q04DX003 (ip), vehicle: suspension in saline) is reported as 57 % of control.
In the case of `NC(=O)c1ccc[n+](Cc2c(Cl)cccc2Cl)c1`, the T/C (dose: 3.0 mg/kg/injection, schedule: Q04DX003 (ip), vehicle: saline) is reported as 169 % of control, the T/C (dose: 24.0 mg/kg/injection, schedule: Q04DX003 (ip), vehicle: saline) is reported as 111 % of control and 112 % of control and the T/C (dose: 96.0 mg/kg/injection, schedule: Q04DX003 (ip), vehicle: saline) is reported as 100 % of control.
With `N[C@H](C(=O)O)[C@@H]1CC(Cl)=NO1` the T/C [10] was 19 % of control, the T/C (dose: 50.0 mg/kg/injection, schedule: Q04DX003 (ip), vehicle: saline) was 12 % of control and the T/C [4] was 5 % of control. For the same compound, the T/C [5] was 1 % of control.
`O=C(O)CP(=O)(O)O` was tested, and the T/C [5] was 87 % of control, the T/C [6] was 69 % of control and the T/C [7] was 48 % of control. For the same compound, the T/C (dose: 1600.0 mg/kg/injection, schedule: Q04DX003 (ip), vehicle: saline) was 50 % of control.
For `OC(C1CO1)C(O)C1CO1` (configuration not stated), the T/C (dose: 1.0 mg/kg/injection, schedule: Q04DX003 (ip), vehicle: saline) was 70 % of control.
`O=C1N(Cl)C(=O)C(c2ccc(Cl)cc2)(c2ccc(Cl)cc2)N1Cl` was tested, and the T/C [9] was 98 % of control.
For `CCOC(=O)C1C2OC(=O)C(C(=O)C2CN(CCCl)CCCl)C1C1CC=C(CC2=CCC(C3C4C(=O)OC(C(CN(CCCl)CCCl)C4=O)C3C(=O)OCC)CC2)CC1` (configuration not stated), the T/C [1] was 58 % of control and the T/C [3] was 35 % of control.
With `CC1OC(OC2CC(O)(C(=O)CO)Cc3c(O)c4c(c(O)c32)C(=O)c2ccccc2C4=O)CC(N)C1O` (configuration not stated) the T/C [11] was 104 % of control and the T/C [12] was 104 % of control.
In the case of `Cc1c(N)nc(C(CC(N)=O)NCC(N)C(N)=O)nc1C(=O)NC(C(=O)NC(C)C(O)C(C)C(=O)NC(C(=O)NCCc1nc(-c2nc(C(=O)NCCCNC(C)c3ccccc3)cs2)cs1)C(C)O)C(OC1OC(CO)C(O)C(O)C1OC1OC(CO)C(O)C(OC(N)=O)C1O)c1cnc[nH]1` (configuration not stated), the T/C (dose: 7.5 mg/kg/injection, schedule: Q04DX003 (ip), vehicle: saline) is reported as 43 % of control and 50 % of control, the T/C (dose: 30.0 mg/kg/injection, schedule: Q04DX003 (ip), vehicle: saline) is reported as 18 % of control and 22 % of control and the T/C (dose: 60.0 mg/kg/injection, schedule: Q04DX003 (ip), vehicle: saline) is reported as 17 % of control.
For `CC1CCC(NC(=O)N(CCCl)N=O)CC1` (configuration not stated), the T/C [1] was 50 % of control.
In the case of `COc1cccc2c1C(=O)c1c(O)c3c(c(O)c1C2=O)C[C@@](O)(C(=O)CO)C[C@@H]3OC1CC(N)CC(C)O1` (some centres not stated), the T/C (dose: 0.13 mg/kg/injection, schedule: Q04DX003 (ip), vehicle: water) is reported as 93 % of control, the T/C [11] is reported as 112 % of control and the T/C [12] is reported as 97 % of control. The T/C (dose: 0.75 mg/kg/injection, schedule: Q04DX003 (ip), vehicle: water) was 93 % of control, the T/C (dose: 1.0 mg/kg/injection, schedule: Q04DX003 (ip), vehicle: water) was 65 % of control and the T/C (dose: 1.5 mg/kg/injection, schedule: Q04DX003 (ip), vehicle: water) was 78 % of control. The T/C (dose: 3.0 mg/kg/injection, schedule: Q04DX003 (ip), vehicle: water) was 63 % of control.
For `CN(N=O)C(=O)N[C@@H](C=O)[C@@H](O)[C@H](O)[C@H](O)CO`, the T/C [4] was 58 % of control and the T/C [5] was 80 % of control.
`COC1C(O)CC(OC2CC(OC3CC(O[C@@H]4C(=O)c5c(cc6cc(OC7CC(OC8CC(O)C(O)C(C)O8)C(O)C(C)O7)c(C)c(O)c6c5O)C[C@H]4[C@H](OC)C(=O)[C@@H](O)[C@@H](C)O)OC(C)C3O)OC(C)C2O)OC1C` (some centres not stated) was tested, and the T/C (dose: 0.75 mg/kg/injection, schedule: Q04DX003 (ip), vehicle: saline) was 90 % of control and 95 % of control.
With `CN(C)c1nc(N(C)C)nc(N(C)C)n1` the T/C [2] was 59 % of control, the T/C (dose: 60.0 mg/kg/injection, schedule: Q01DX005 (ip), vehicle: Klucel (hydroxypropylcellulose) (HPC)) was 15 % of control and the T/C (dose: 60.0 mg/kg/injection, schedule: Q07DX005 (ip), vehicle: Klucel (hydroxypropylcellulose) (HPC)) was 42 % of control. For the same compound, the T/C [3] was 47 % of control, the T/C (dose: 120.0 mg/kg/injection, schedule: Q01DX005 (ip), vehicle: Klucel (hydroxypropylcellulose) (HPC)) was 1 % of control and the T/C (dose: 120.0 mg/kg/injection, schedule: Q04DX005 (ip), vehicle: Klucel (hydroxypropylcellulose) (HPC)) was -38 % of control. For the same compound, the T/C (dose: 200.0 mg/kg/injection, schedule: Q04DX003 (ip), vehicle: Klucel (hydroxypropylcellulose) (HPC)) was 1 % of control and the T/C (dose: 240.0 mg/kg/injection, schedule: Q07DX005 (ip), vehicle: Klucel (hydroxypropylcellulose) (HPC)) was -99 % of control.
`O=C(NO)c1ccccc1` was tested, and the T/C (dose: 25.0 mg/kg/injection, schedule: Q01DX003 (ip), vehicle: saline) was 82 % of control, the T/C (dose: 50.0 mg/kg/injection, schedule: Q01DX003 (ip), vehicle: saline) was 108 % of control and the T/C (dose: 100.0 mg/kg/injection, schedule: Q01DX003 (ip), vehicle: saline) was 42 % of control.
